Data from BindingDB's records for doi:10.1016/j.bmcl.2013.05.024 (Janssen Research and Development, 2014).

Test: Antagonist activity at CCR2 receptor in human THP1 cells assessed as inhibition of MCP-1 induced chemotaxis after 3 hrs

SMILES	IC50 [nM]
COC1COCCC1N[C@@H]1C[C@H]2CN(C(N)=NC#N)C[C@@]2(C(=O)N2CCc3ncc(C(F)(F)F)cc3C2)C1 (some centres undefined)	29
COC1COCCC1N[C@@H]1C[C@H]2CN(C(=O)OCCN3CCCC3)C[C@@]2(C(=O)N2CCc3ncc(C(F)(F)F)cc3C2)C1 (some centres undefined)	28
COC1COCCC1N[C@@H]1C[C@H]2CN(C(C)=O)C[C@@]2(C(=O)N2CCc3ncc(C(F)(F)F)cc3C2)C1 (some centres undefined)	230
COC1COCCC1N[C@@H]1C[C@H]2CN(C(=O)OCCNC(C)=O)C[C@@]2(C(=O)N2CCc3ncc(C(F)(F)F)cc3C2)C1 (some centres undefined)	18
COC1COCCC1N[C@@H]1C[C@H]2CN(C(=O)OCC(C)C)C[C@@]2(C(=O)N2CCc3ncc(C(F)(F)F)cc3C2)C1 (some centres undefined)	21
COC1COCCC1N[C@@H]1C[C@H]2CN(C(=O)NCc3ccccc3)C[C@@]2(C(=O)N2CCc3ncc(C(F)(F)F)cc3C2)C1 (some centres undefined)	220
COC1COCCC1N[C@@H]1C[C@H]2CN(C(=O)OCc3ccccc3)C[C@@]2(C(=O)N2CCc3ncc(C(F)(F)F)cc3C2)C1 (some centres undefined)	190
CNC(=O)N1C[C@@H]2C[C@@H](NC3CCOCC3OC)C[C@]2(C(=O)N2CCc3ncc(C(F)(F)F)cc3C2)C1 (some centres undefined)	71
COC(=O)N1C[C@@H]2C[C@@H](NC3CCOCC3OC)C[C@]2(C(=O)N2CCc3ncc(C(F)(F)F)cc3C2)C1 (some centres undefined)	69
COC1COCCC1N[C@@H]1C[C@H]2CN(C(=O)/C=C/C(C)(C)C)C[C@@]2(C(=O)N2CCc3ncc(C(F)(F)F)cc3C2)C1 (some centres undefined)	88
COC1COCCC1N[C@@H]1C[C@H]2CN(C(=O)OCC3CCOCC3)C[C@@]2(C(=O)N2CCc3ncc(C(F)(F)F)cc3C2)C1 (some centres undefined)	65
COCCOC(=O)N1C[C@@H]2C[C@@H](NC3CCOCC3OC)C[C@]2(C(=O)N2CCc3ncc(C(F)(F)F)cc3C2)C1 (some centres undefined)	41
COC1COCCC1N[C@@H]1C[C@H]2CN(c3ccccc3)C[C@@]2(C(=O)N2CCc3ncc(C(F)(F)F)cc3C2)C1 (some centres undefined)	90
COC1COCCC1N[C@@H]1C[C@H]2CN(C(=O)OCC(C)(C)C)C[C@@]2(C(=O)N2CCc3ncc(C(F)(F)F)cc3C2)C1 (some centres undefined)	99
COC1COCCC1N[C@@H]1C[C@H]2CN(C(=O)C#CC3CC3)C[C@@]2(C(=O)N2CCc3ncc(C(F)(F)F)cc3C2)C1 (some centres undefined)	39
COC1COCCC1N[C@@H]1C[C@H]2CN(C(=O)OCCN3CCOCC3)C[C@@]2(C(=O)N2CCc3ncc(C(F)(F)F)cc3C2)C1 (some centres undefined)	97
COC1COCCC1N[C@@H]1C[C@H]2CN(C(=O)NC(C)C)C[C@@]2(C(=O)N2CCc3ncc(C(F)(F)F)cc3C2)C1 (some centres undefined)	81
COC1COCCC1N[C@@H]1C[C@H]2CN(C(N)=O)C[C@@]2(C(=O)N2CCc3ncc(C(F)(F)F)cc3C2)C1 (some centres undefined)	27
COC1COCCC1N[C@@H]1C[C@H]2CN(C(=O)Oc3ccccc3)C[C@@]2(C(=O)N2CCc3ncc(C(F)(F)F)cc3C2)C1 (some centres undefined)	950
